Laboratory results as given in patent publication US10800742B2, “Small molecule compounds targeting PBX1 transcriptional complex” (THE JOHNS HOPKINS UNIVERSITY, priority 2015, dated 2020).

Test system: SKOV3 carboplatin-resistant cancers
Experiment: SKOV3CRLuc subcutaneous xenograft
Assay type: in vivo, athymic nu/nu mice
Conditions: platinum-resistant mouse tumor model
Method: [MUT] and SKOV3CRLuc cells were injected subcutaneously into the athymic nu/nu mice (3×10^6, n=8 for each group). Parental SKOV3Luc cells were used as a negative control. Mice were intraperitoneally (i.p.) injected with [MUT] (red, 2.5 mg/kg/injection) or DMSO (red arrows) using a 3 days-on 4-days off protocol. Carboplatin (30 mg/kg/injection) was administrated i.p. every other day (green arrows). (B) Tumor volume was measured every other day for 25 to 40 days using a caliper, and luminescence activity was evaluated weekly. (C) Endpoint tumor volumes of [MUT], SKOV3Luc, and SKOV3CRLuc xenografts treated with the indicated drug or drug combination. Student's t-test. (D) Representative bioluminescence images of tumor burden in SKOV3CRLuc-innoculated mice treated with indicated drug. Images captured by the IVIS Spectrum at day 35. […] In vivo bioluminescence images were taken at the same time using the IVIS Spectrum. […] We tested the anti-tumor potency of [MUT]

For `N.N.O=C([O-])C1(C(=O)[O-])CCC1.[Pt+2]` [carboplatin], the “anti-tumor potency (tumor growth)” value was “relatively ineffective”.
